Assay results as given in patent US11401253B2, “16-methyl-oxacyclohexadecan-2-one and 16-methyl-azacyclohexadecan-2-one derivatives as antimicrobial agents” (THE UNIVERSITY OF MONTANA, priority 2017, dated 2022).
Values after ≈ are worked out from the molar mass of the structure shown. Values joined by “and” are separate entries in the source; they are usually repeats but may differ in a detail not shown here. Identical values can stand only once. “Also recorded” adds a separate entry of the source.

Columns and labels:
[1] = system: Staphylococcus aureus (13709); experiment: Antibiotic testing (MIC), S. aureus 13709; format: cell-based; conditions: growth inhibition ≥90% relative to drug-free controls, read-out: minimum inhibitory concentration, Staphylococcus aureus (13709)
Streptococcus pyogenes = experiment: Antibiotic testing (MIC), Streptococcus pyogenes; format: cell-based; conditions: growth inhibition ≥90%, read-out: minimum inhibitory concentration, Streptococcus pyogenes
Candida glabrata = experiment: Antibiotic testing (MIC), Candida glabrata; format: cell-based; conditions: Nakaseomyces glabratus; growth inhibition ≥90%; read-out: minimum inhibitory concentration, Candida glabrata
Bacillus subtilis = experiment: Antibiotic testing (MIC), Bacillus subtilis; format: cell-based; conditions: growth inhibition ≥90%, read-out: minimum inhibitory concentration, Bacillus subtilis
C. albicans = experiment: Antibiotic testing (MIC), C. albicans; format: cell-based; conditions: Candida albicans; growth inhibition ≥90%; read-out: minimum inhibitory concentration, C. albicans
B. anthracis = experiment: microbe, parasite or virus in culture; format: cell-based; conditions: Bacillus anthracis, read-out: minimum inhibitory concentration, B. anthracis
Enterococcus faecalis = experiment: Antibiotic testing (MIC), Enterococcus faecalis; format: cell-based; conditions: growth inhibition ≥90%, read-out: minimum inhibitory concentration, Enterococcus faecalis
S. aureus CAIRD116 = experiment: Antibiotic testing, methicillin-resistant S. aureus CAIRD116; format: cell-based; conditions: Staphylococcus aureus, CAIRD116; methicillin-resistant strain
Description: (§1) Both the methyl ester and the diacetate derivatives of BPL 76 slightly less but still very strong activity against the same four MRSA strains (Table 11). The activities of compounds BPL 76 and BPL 81 were compared to several known antibiotics against three methicillin-resistant strains of S. aureus [FIG. 6, comparative data provided by Hartford Hospital, Center for Anti-Infective Research and Development (CAIRD)].

S. aureus CAIRD142 = experiment: Antibiotic testing, methicillin-resistant S. aureus CAIRD142; format: cell-based; conditions: Staphylococcus aureus, CAIRD142; methicillin-resistant strain
Description: as §1

S. aureus CAIRD148 = experiment: Antibiotic testing, methicillin-resistant S. aureus CAIRD148; format: cell-based; conditions: Staphylococcus aureus, CAIRD148; methicillin-resistant strain
Description: as §1

S. aureus (NE277) = experiment: Antibiotic testing, methicillin-resistant S. aureus NE277; format: cell-based; conditions: Staphylococcus aureus, read-out: antibiotic testing data (MIC), S. aureus (NE277)
Description: as §1

K. pneumoniae (10031) = experiment: Antibiotic testing (MIC), gram negative K. pneumoniae; format: cell-based; conditions: for MIC: Klebsiella pneumoniae, read-out: MIC, K. pneumoniae (10031)
Procedure: (§2) None of this collection of compounds were active against Gram-negative bacteria
(§3) Additionally, BPL 76 and derivatives were tested against a panel of gram negative bacteria including K. pneumonia, P. aeruginosa and E. coli (Table 12).

P. aeruginosa = experiment: Antibiotic testing (MIC), gram negative P. aeruginosa; format: cell-based; conditions: Pseudomonas aeruginosa; read-out: MIC, P. aeruginosa
Procedure: as §2, §3

E. coli (25922) = experiment: Antibiotic testing (MIC), gram negative E. coli; format: cell-based; conditions: for MIC: Escherichia coli, read-out: MIC, E. coli (25922)
Procedure: as §2, §3

[2] = system: non-replicating persistence Mycobacterium tuberculosis (NRP-TB); experiment: Low oxygen recovery assay (LORA), non-replicating persistence Mtb; format: cell-based; conditions: non-replicating persistence, hypoxic conditions; for MIC: Mycobacterium tuberculosis, read-out: MIC, LORA
Vero cell = experiment: Cytotoxicity (MTS), Vero cells; format: cell-based, monkey; conditions: Primates, 72 hours exposure
HepG2 = experiment: Cytotoxicity (MTS), HepG2 cells; format: cell-based; conditions: Homo sapiens, 72 hours exposure
J774 = experiment: Cytotoxicity (MTS), J774 cells; format: cell-based, murine; conditions: Mus musculus, 72 hours exposure
MMP-3 = biological target: T1, MMP-3 (Homo sapiens, UniProt P08254); experiment: MMP-3 enzyme inhibition assay; format: biochemical
T1 construct: purchased BioMol
Procedure: The two fungi were also co-cultured under controlled conditions. P. fuscum was grown in pure culture in potato dextrose broth (10×400 mL). After 24 h, an agar cube (8 mm^3) impregnated with P. camembertii/clavigerum mycelium was added to each flask and the resulting co-culture was shaken for 6 more days (200 rpm, room temperature). At time of harvest, methanol (50 mL/flask) was added, the mycelia were removed by gravity filtration and the broth was extracted with chloroform (3×2 L). The chloroform was removed in vacuo to yield 663 mg of crude extract. The crude extract was verified to be active in the MMP-3, caspase-1 and caspase-3 enzyme inhibition assays. Enzyme inhibitory activity was determined using specific BioMol enzyme inhibition assay kits for drug discovery as described in Stierle, A; Stierle, D. The Berkeleylactones, Antibiotic Macrolides from Fungal Coculture. J. Nat. Prod. 80, 4, 1150-1160.

[3] = system: Mycobacterium tuberculosis; experiment: microbe, parasite or virus in culture; conditions: read-out: MIC, MABA
[4] = system: primary human peripheral blood mononuclear cells (PBMCs); experiment: Cell death in primary PBMCs; format: cell-based; conditions: highest concentration tested, 500 μg/ml
Procedure: Additionally the BPL76 compound was tested against primary human peripheral blood mononuclear cells (PBMCs) and induced very little cell death, with only up to 60% death induced at the highest concentration tested, 500 μg/ml (not shown).

GFP synthesis = experiment: Cell-free translation assay with GFP reporter; format: biochemical; conditions: 50 μM and 250 μM, 37° C., readings for 2 hr
Procedure: Further assessment of the effect of BPL76 on protein translation was done using a cell-free translation assay. The plasmid pY71-sfGFP^55 (5 ng) was translated in the PUREexpress in vitro protein synthesis system (New England Biolabs). The final concentrations of erythromycin, josamycin and tylosin in the translation reactions were 50 μM. The reactions were incubated at 37° C. and fluorescence readings (excitation: 488 nm, emission, 520 nm) were taken every 20 min for 2 hr.

Gram-positive bacteria = experiment: Antibiotic panel, Gram-positive bacteria; format: cell-based; conditions: 1 μM-1 mM/well
Description: as §2

[5] = Bactericidal activity (therapeutic index statement); format: cell-based
[6] = system: Vero, HepG2 and J774 cells; experiment: Cytotoxicity, mammalian cell lines (summary statement); format: cell-based
Procedure: Cytotoxicity for Vero, HepG2 and J774 cells were determined following 72 hours exposure to BPL76 and analogs. Cell viability was assessed on the basis of cellular conversion of MTS dye into a soluble formazan product using the Promega CellTiter 96 Aqueous Non-Radioactive Cell Proliferation Assay. After incubation at 37° C. for 72 h, medium was removed and monolayers were washed twice with 100 μl of warm Hanks' balanced salt solution (HBSS). One hundred microliters of warm medium and 20 μl of freshly made MTS-PMS [3-(4,5-dimethylthiazol-2-yl)-5-(3-carboxymethoxyphenyl)-2-(4-sulfophenyl)-2H-tetrazolium and […]](100:20) (Promega) were added to each well, plates were incubated for 3 h, and absorbance was determined at 490 nm. Viability was assessed on the basis of cellular conversion of MTS dye into a soluble formazan product using the Promega CellTiter 96 Aqueous Non-Radioactive Cell Proliferation Assay as described in Falzari K, Zhu Z, Pan D, Liu H, Hongmanee P, et al. (2005). In vitro and in vivo activities of macrolide derivatives against Mycobacterium tuberculosis were determined as described in Ekins, S, Reynolds, R C, Franzblau, S G, et al. Enhancing Hit Identification in Mycobacterium tuberculosis Drug Discovery Using Validated Dual-Event Bayesian Models PLOS ONE (2013) 8:5, e63240. […]

[7] = system: Mycobacterium tuberculosis

T1 sequence (P08254 100-477): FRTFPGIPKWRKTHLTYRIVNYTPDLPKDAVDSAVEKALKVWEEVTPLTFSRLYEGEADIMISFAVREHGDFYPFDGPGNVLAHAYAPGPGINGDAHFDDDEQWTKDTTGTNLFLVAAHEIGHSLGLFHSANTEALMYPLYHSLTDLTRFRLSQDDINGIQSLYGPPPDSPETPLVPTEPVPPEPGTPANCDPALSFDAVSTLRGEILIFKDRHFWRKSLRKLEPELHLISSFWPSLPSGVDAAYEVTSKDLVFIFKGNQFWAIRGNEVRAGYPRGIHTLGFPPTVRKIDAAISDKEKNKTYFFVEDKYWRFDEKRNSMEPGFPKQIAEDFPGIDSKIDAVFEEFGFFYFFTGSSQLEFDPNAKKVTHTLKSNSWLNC

Compound	MIC [1]	MIC (Streptococcus pyogenes)	MIC (Candida glabrata)	MIC (Bacillus subtilis)	MIC (C. albicans)	MIC (B. anthracis)	MIC (Enterococcus faecalis)	MIC (S. aureus CAIRD116)	MIC (S. aureus CAIRD142)	MIC (S. aureus CAIRD148)	MIC (K. pneumoniae (10031))	MIC (P. aeruginosa)	MIC (E. coli (25922))	MIC [2]	IC50 (Vero cell)	IC50 (HepG2)	IC50 (J774)	MIC [3]	other results
C[C@@H]1CCCCCCCCC[C@H](OC(=O)CCC(=O)O)C(=O)C[C@@H](SC[C@@H](O)C(=O)O)C(=O)O1 [BPL 88, 4-(((3R,6S,16R)-3-(((S)-2-carboxy-2-hydroxyethyl)thio)-16-methyl-2,5-dioxooxacyclohexadecan-6-yl)oxy)-4-oxobutanoic acid]	4 µg/mL (≈ 7.93 µM)	119 µg/mL (≈ 236 µM)	31 µg/mL (≈ 61.4 µM)	31 µg/mL (≈ 61.4 µM)	> 119 µg/mL	8 µg/mL (≈ 15.9 µM)	31 µg/mL (≈ 61.4 µM)	15 µg/mL (≈ 29.7 µM)	15 µg/mL (≈ 29.7 µM)	8 µg/mL (≈ 15.9 µM)	> 250 µM	> 250 µM	> 250 µM	46 µg/mL (≈ 91.2 µM)	> 100 µg/mL	> 100 µg/mL	42.5 µg/mL (≈ 84.3 µM)	> 100 µg/mL	MIC (S. aureus (NE277)): 8 µg/mL (≈ 15.9 µM); MMP-3 inhibition (MMP-3): weaker inhibitors
C[C@@H]1CCCCCCCCC[C@H](O)C(=O)C[C@@H](SC[C@@H](O)C(=O)O)C(=O)O1 [BPL 76, (S)-2-hydroxy-3-(((3R,6S,16R)-6-hydroxy-16-methyl-2,5-dioxooxacyclohexadecan-3-yl)thio)propanoic acid]	1 µg/mL (≈ 2.47 µM)	3 µg/mL (≈ 7.42 µM)	6 µg/mL (≈ 14.8 µM)	13 µg/mL (≈ 32.1 µM)	26 µg/mL (≈ 64.3 µM)	3 µg/mL (≈ 7.42 µM)	13 µg/mL (≈ 32.1 µM)	1 µg/mL (≈ 2.47 µM)	2 µg/mL (≈ 4.94 µM)	1 µg/mL (≈ 2.47 µM)	1000 µM and 405 µg/mL	> 1000 µM	1000 µM and 405 µg/mL	24 µg/mL (≈ 59.3 µM)	61.5 µg/mL (≈ 152 µM)	64.8 µg/mL (≈ 160 µM)	16.8 µg/mL (≈ 41.5 µM)	25 µg/mL (≈ 61.8 µM)	activity against K. pneumonia (in words) (K. pneumoniae (10031)): weakly active; activity against E. coli (in words) (E. coli (25922)): weakly active; MIC, LORA [2]: ~24 µg/mL (≈ 59.3 µM); cell death induced in PBMCs [4]: up to 60%; effect on GFP synthesis and corresponding fluorescence (GFP synthesis): no effect at either concentration; also recorded: lack of inhibition; activity against Gram-positive bacteria (Gram-positive bacteria): strongest activity; efficacious concentration to induce bactericidal activity [5]: ~1 µg/mL; mammalian toxicity concentration [6]: ~60 µg/mL; MIC, MABA [7]: ~25 µg/mL (≈ 61.8 µM); fold less active against Mtb than against MRSA [7]: 25 fold; times less potent than rifampicin against Mtb [7]: 100 ×
